Laboratory results from publication PMC10975527 (Viruses, 2024).
Where a name gives a salt, the structure may show the parent alone. Read-outs that look alike come from different tables or passages of the source.

What was measured:
dogs = conditions: dog, in vivo; cited from earlier work
[1] = plasma, cited from earlier work
rats [2] = conditions: rat, in vivo; cited from earlier work
HBV [3] = test: In vitro combination study in HepG2.2.15 cells; type: cell-based, hepatitis B virus; conditions: for interference with HBsAg inhibition by AB-161: HepG2.2.15, combined with AB-161; for effect on the levels of HBsAg: HepG2.2.15, compound alone; for Antagonism / Synergy / Conclusion (combination effect): Inhibitor A combined with AB-161, HBV DNA; for Antagonism / Synergy: 99.9% confidence; for Conclusion (combination effect): Prichard and Shipman criteria
Wild-type HBV = test: HBV polymerase variant phenotyping in Huh-7: wild-type; conditions: Hepatitis B virus, Huh-7, read-out: HBV DNA, EC50
HBV [4] = test: HBV life cycle analysis in HepG2.2.15 cells; type: cell-based, hepatitis B virus; conditions: ETV 1 μM, GLS4 1 μM, AB-161 100 nM
rats [5] = conditions: cited from earlier work
monkeys = test system: monkeys; set-up: method as in earlier work; conditions: 9 months dosing; cited from earlier work

Structure (SMILES)	interference with HBsAg inhibition by AB-161 (HBV [3])	effect on the levels of HBsAg (HBV [3])	Antagonism (HBV [3]) [µM^2%]	Synergy (HBV [3]) [µM^2%]	Conclusion (combination effect) (HBV [3])	HBV DNA replication (HBV [4])	intracellular HBV RNA (pgRNA, preS/S RNA) (HBV [4])	viral proteins: HBV core and capsid assembly (HBV [4])	also measured
COCCCOc1cc2c(nc1OC)-c1cc(=O)c(C(=O)O)cn1[C@H](C(C)C)C2 [AB-452, (S)-6-Isopropyl-2-methoxy-3-(3-methoxypropoxy)-10-oxo-5,10-dihydro-6H-pyrido [1,2-h][1,7]naphthyridine-9-carboxylic Acid]	–	–	–	–	–	–	–	–	histopathology of spinal nerves (dogs): axonal degeneration; protein binding [1]: ~50%; findings in male reproductive tissues (rats [2]): Decreased epididymis and minimal-to-mild spermatid depletion; histopathology of sciatic nerves (rats [2]): axonal degeneration
C=C1[C@H](CO)[C@@H](O)C[C@@H]1n1cnc2c(=O)[nH]c(N)nc21 [ETV, entecavir]	did not interfere	do not affect	−3.99 ± 3.59	0.00 ± 0.00	Additive	profoundly inhibited	no effect	no effect	EC50 (HBV [3]; Hepatitis B virus, HepG2.2.15, read-out: Inhibitor A EC50): 5.1 ± 1.1 nM; EC50 (Wild-type HBV): 17 nM
CCOC(=O)C1=C(CN2CCOCC2)NC(c2nccs2)=NC1c1ccc(F)cc1Br (centres unmarked) [GLS4]	–	–	–	–	–	substantially reduced	no effect	substantially reduced	–
COCCCOc1cc2c(cc1OC)-c1cc(=O)c(C(=O)O)cn1[C@H](C(C)C)C2 [RG7834]	–	–	–	–	–	–	–	–	neurotoxicity (rats [5]; 6 months dosing): dose- and time-dependent neurotoxicity; male reproductive adverse events (rats [5]): abnormal sperm and testicular changes; neurotoxicity (monkeys): dose- and time-dependent neurotoxicity; protein binding ([1]; species not stated): ~56%
CC(C)OC(=O)OCOP(=O)(CO[C@H](C)Cn1cnc2c(N)ncnc21)OCOC(=O)OC(C)C [TDF, tenofovir disoproxil fumarate]	did not interfere	do not affect	−0.43 ± 0.744	0.00 ± 0.00	Additive	–	–	–	–
